Source: PubChem BioAssay AID342 (DTP/NCI, 2004)
Values joined by “and” are separate entries in the source; they are usually repeats but may differ in a detail not shown here. Equal values may be shown once. Square brackets hold non-standard residues; d marks the D form. Peptide text beside a SMILES is read from it. ξ: configuration not given here. Ac5c = NC1(C(=O)O)CCCC1; ξS = NC(CO)C(=O)O

System: Swiss mice, Sarcoma 180 sc, mean tumor weight T/C
Test: NCI In Vivo Anticancer Drug Screen. Data for tumor model Sarcoma 180 (subcutaneous) in Swiss mice
Settings: endpoint: mean tumor weight, higher = larger tumour
Summary of the method: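 Transplantable tumors were established in mice, compound was given, then survival or tumor size was recorded. The treated value was divided by the vehicle-control value.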

For `CS(=O)(=O)OCCCCOS(C)(=O)=O`, the T/C (dose: 4.12 mg/kg/injection, schedule: Q#A X014 (ip), vehicle: carboxymethylcellulose (CMC)) was 108 % of control, the T/C (dose: 6.25 mg/kg/injection, schedule: Q#A X014 (ip), vehicle: carboxymethylcellulose (CMC)) was 91 % of control and the T/C (dose: 8.25 mg/kg/injection, schedule: Q#A X014 (ip), vehicle: carboxymethylcellulose (CMC)) was 119 % of control. The T/C (dose: 9.87 mg/kg/injection, schedule: Q01DX007 (ip), vehicle: carboxymethylcellulose (CMC)) was 87 % of control, the T/C (dose: 12.5 mg/kg/injection, schedule: Q#A X014 (ip), vehicle: carboxymethylcellulose (CMC)) was 103 % of control and the T/C (dose: 16.5 mg/kg/injection, schedule: Q#A X014 (ip), vehicle: carboxymethylcellulose (CMC)) was 85 % of control. The T/C (dose: 19.75 mg/kg/injection, schedule: Q01DX007 (ip), vehicle: carboxymethylcellulose (CMC)) was 65 % of control, the T/C (dose: 25.0 mg/kg/injection, schedule: Q#A X014 (ip), vehicle: carboxymethylcellulose (CMC)) was 96 % of control and the T/C (dose: 33.0 mg/kg/injection, schedule: Q#A X014 (ip), vehicle: carboxymethylcellulose (CMC)) was 66 % of control. The T/C (dose: 39.5 mg/kg/injection, schedule: Q01DX007 (ip), vehicle: carboxymethylcellulose (CMC)) was 60 % of control.

In the case of `CC1OC2CC(=O)OC2C2=C1C(=O)c1c(O)c3c(c(O)c1C2=O)C1CC(O)C3(O)C(C)O1` (centres undefined), the T/C (dose: 0.01 mg/kg/injection, schedule: Q01DX007 (ip), vehicle: saline) is reported as 114 % of control, the T/C (dose: 0.03 mg/kg/injection, schedule: Q01DX007 (ip), vehicle: saline) is reported as 112 % of control and the T/C (dose: 0.1 mg/kg/injection, schedule: Q01DX007 (ip), vehicle: saline) is reported as 112 % of control. For the same molecule, the T/C (dose: 0.2 mg/kg/injection, schedule: Q01DX007 (ip), vehicle: saline) was 113 % of control, the T/C (dose: 0.4 mg/kg/injection, schedule: Q01DX007 (ip), vehicle: saline) was 116 % of control and the T/C (dose: 0.8 mg/kg/injection, schedule: Q01DX007 (ip), vehicle: saline) was 99 % of control. The T/C (dose: 1.6 mg/kg/injection, schedule: Q01DX007 (ip), vehicle: saline) was 94 % of control, the T/C (dose: 6.4 mg/kg/injection, schedule: Q01DX007 (ip), vehicle: saline) was 79 % of control and the T/C (dose: 12.0 mg/kg/injection, schedule: Q01DX007 (ip), vehicle: saline) was 88 % of control. The T/C (dose: 12.8 mg/kg/injection, schedule: Q01DX007 (ip), vehicle: saline) was 64 % of control and the T/C (dose: 24.0 mg/kg/injection, schedule: Q01DX007 (ip), vehicle: saline) was 61 % of control.

In the case of `CC(=O)C1(/C(C)=C/C2C(C=O)=CC(C)(C)C2O)CC1` (centres undefined), the T/C (dose: 0.25 mg/kg/injection, schedule: Q01DX007 (ip), vehicle: saline) is reported as 106 % of control, the T/C (dose: 0.5 mg/kg/injection, schedule: Q01DX007 (ip), vehicle: saline) is reported as 59 % of control and the T/C (dose: 1.0 mg/kg/injection, schedule: Q01DX007 (ip), vehicle: saline) is reported as 65 % of control. The T/C (dose: 2.0 mg/kg/injection, schedule: Q01DX007 (ip), vehicle: saline) was 67 % of control, the T/C (dose: 8.0 mg/kg/injection, schedule: Q01DX007 (ip), vehicle: saline) was 75 % of control and the T/C (dose: 16.0 mg/kg/injection, schedule: Q01DX007 (ip), vehicle: saline) was 94 % of control and 102 % of control. The T/C (dose: 32.0 mg/kg/injection, schedule: Q01DX007 (ip), vehicle: saline) was 99 % of control, the T/C (dose: 64.0 mg/kg/injection, schedule: Q01DX007 (ip), vehicle: saline) was 77 % of control and the T/C (dose: 128.0 mg/kg/injection, schedule: Q01DX007 (ip), vehicle: saline) was 78 % of control.

`CCOC(=O)C(CO)NC(=O)C1(NC(C)=O)CCCC1` (centres undefined) (Ac-[Ac5c]-[ξS]-OEt) was tested, and the T/C (dose: 66.0 mg/kg/injection, schedule: Q01DX007 (ip), vehicle: water) was 97 % of control, the T/C (dose: 100.0 mg/kg/injection, schedule: Q01DX007 (ip), vehicle: water) was 94 % of control and the T/C (dose: 150.0 mg/kg/injection, schedule: Q01DX007 (ip), vehicle: water) was 83 % of control. The T/C (dose: 225.0 mg/kg/injection, schedule: Q01DX007 (ip), vehicle: water) was 74 % of control.
